The IC50 is the midpoint of a concentration-inhibition curve.

This note sets out measurements from US7531554B2, “4-oxoquinoline compound and use thereof as HIV integrase inhibitor” (Japan Tobacco Inc., priority 2004, dated 2009).

In this test the target is T1, HIV integrase (Human immunodeficiency virus type 1 group M subtype B, UniProt P12497, F1332H).
T1 construct: HIV integrase full length gene (J. Virol., 67, 425-437 (1993)) in which phenylalanine at codon 185 was substituted by histidine; made in house; host or cells: Escherichia coli BL21(DE3)
The test is described as follows: Determination of enzyme (HIV integrase) inhibitory activity. The format is biochemical. Conditions: recombinant integrase protein (F185H), donor DNA/target DNA, absorbance at 450 nm. On the procedure:
HIV integrase full length gene (J. Virol., 67, 425-437 (1993)) in which phenylalanine at codon 185 was substituted by histidine, was inserted between the restriction enzyme NdeI and XhoI sites of plasmid pET21a(+) (Novagen), whereby an integrase expression vector pET21a-IN-F185H was constructed.
Escherichia coli recombinant BL21(DE3) transformed with plasmid pET21a-IN-F185H obtained in (i) was shake cultured at 30° C. in a liquid medium containing ampicillin. When the culture reached the logarithmic growth phase, isopropyl-β-D-thiogalactopyranoside was added to promote expression of integrase gene. The culture was continued for 3 hr to promote accumulation of the integrase protein. The recombinant E. coli was collected in pellets by centrifugal separation and preserved at −80° C.
The E. coli was suspended in Lysis buffer (20 mM HEPES (pH 7.5), 5 mM DTT, 10 mM CHAPS, 10% glycerol) containing 1M sodium chloride and subjected to repeat pressurization and depressurization for rupture, and centrifugal separation at 4° C., 40,000×g, 60 min to recover a water-soluble fraction (supernatant). This was diluted 10-fold with Lysis buffer free of sodium chloride, mixed with SP-Sepharose (Pharmacia Corporation) and stirred at 4° C. for 60 min to allow adsorption of integrase protein to the resin. The resin was washed with Lysis buffer containing 100 mM sodium chloride and the integrase protein was eluted with Lysis buffer containing 1M sodium chloride.
The eluted integrase protein solution was subjected to a Superdex 75 (Pharmacia Corporation) column for gel filtration. The protein was eluted with Lysis buffer containing 1M sodium chloride.
The obtained fractions of the integrase protein were collected and preserved at −80° C.
The following DNA synthesized by Greiner was dissolved in TE buffer (10 mM Tris-hydrochloric acid (pH 8.0), 1 mM EDTA) and mixed with donor DNA, target DNA, and each complementary strand (+ and − strands) to 1 μM. The mixture was heated at 95° C. for 5 min, 80° C. for 10 min, 70° C. for 10 min, 60° C. for 10 min, 50° C. for 10 min and 40° C. for 10 min and kept at 25° C. to give a double stranded DNA, which was used for the test. Donor DNA ([…] attached to the 5′ terminal) Donor + strand: 5′-Biotin-ACCCTTTTAGTCAGTGTGGAAAATCTCTAGCA-3′ (SEQ ID NO:1) Donor − strand: 5′-ACTGCTAGAGATTTTCCACACTGACTAAAAG-3′ (SEQ ID NO:2) Target DNA (+, − strands both having digoxigenin added at 3′ terminal) Target + strand: 5′-TGACCAAGGGCTAATTCACT-Dig-3′ (SEQ ID NO:3) Target − strand: 5′-AGTGAATTAGCCCTTGGTCA-Dig-3′ (SEQ ID NO:4)
The donor DNA was diluted with TE buffer to 10 nM, of which 50 μl was added to each well of streptavidin-coated microtiter plate (Roche) and allowed to adsorb at 37° C. for 60 min. The plate was washed with phosphate buffer (Dulbecco's PBS, Sanko Junyaku Co., Ltd.) containing 0.1% Tween 20 and phosphate buffer. Then, an enzyme reaction mixture (70 μl), a test substance (10 μl) diluted with the reaction mixture and 100 μg/ml integrase protein (10 μl) were added to each well and reacted at 37° C. for 60 min.
Then, 50 nM target DNA (10 μl) was added, reacted at 37° C. for 10 min and washed with phosphate buffer containing 0.1% Tween 20 to stop the reaction.
Then, 100 mU/ml peroxidase labeled anti-digoxigenin antibody solution (Roche, 100 μl) was added, and the mixture was reacted at 37° C. for 60 min, followed by washing with phosphate buffer containing 0.1% Tween 20.
A peroxidase color solution (Bio Rad, 100 μl) was added and allowed to react at room temperature for 4 min. The color reaction was stopped by adding 1N sulfuric acid (100 μl). The absorbance at 450 nm was measured.
The HIV integrase inhibitory activity (IC50) of the compound of the present invention was calculated from the inhibition rate according to the following formula. […]

For the molecule `COc1cc2c(cc1Cc1cccc(Cl)c1F)c(=O)c(C(=O)O)cn2[C@H](CO)CCS(C)(=O)=O` [Example 2-13, 6-(3-chloro-2-fluorobenzyl)-1-((1S)-1-(hydroxymethyl)-3-mesylpropyl)-7-methoxy-4-oxo-1,4-dihydroquinoline-3-carboxylic acid], the IC50 came out at 6.9 nM.

Consider `COC[C@@H](CO)n1cc(C(=O)O)c(=O)c2cc(Cc3cccc(Cl)c3F)ccc21` [Example 2-14, 6-(3-chloro-2-fluorobenzyl)-1-((1R)-1-(hydroxymethyl)-2-methoxyethyl)-4-oxo-1,4-dihydroquinoline-3-carboxylic acid], for which the IC50 turned out to be 13 nM.

For `CO[C@H](C)[C@@H](CO)n1cc(C(=O)O)c(=O)c2cc(Cc3cccc(Cl)c3F)ccc21` [Example 2-15, 6-(3-chloro-2-fluorobenzyl)-1-((1R,2R)-1-(hydroxymethyl)-2-methoxypropyl)-4-oxo-1,4-dihydroquinoline-3-carboxylic acid], the IC50 was determined as 5.2 nM.

As to `CSCC[C@@H](CO)n1cc(C(=O)O)c(=O)c2cc(Cc3cccc(Cl)c3F)ccc21` [Example 2-16, 6-(3-chloro-2-fluorobenzyl)-1-((1S)-1-(hydroxymethyl)-3-(methylthio)propyl)-4-oxo-1,4-dihydroquinoline-3-carboxylic acid], the IC50 is 5.8 nM.

With `CS(=O)(=O)CC[C@@H](CO)n1cc(C(=O)O)c(=O)c2cc(Cc3cccc(Cl)c3F)ccc21` [Example 2-17, 6-(3-chloro-2-fluorobenzyl)-1-((1S)-1-(hydroxymethyl)-3-mesylpropyl)-4-oxo-1,4-dihydroquinoline-3-carboxylic acid], the IC50 came to 14 nM.

Turning to `COC[C@@H](CO)n1cc(C(=O)O)c(=O)c2cc(Cc3cccc(Cl)c3F)c(OC)cc21` [Example 2-18, 6-(3-chloro-2-fluorobenzyl)-1-((1R)-1-(hydroxymethyl)-2-methoxyethyl)-7-methoxy-4-oxo-1,4-dihydroquinoline-3-carboxylic acid], the IC50 was 6 nM.

For the molecule `CC(C)[C@@H](CO)n1cc(C(=O)O)c(=O)c2cc(Cc3cccc(Cl)c3F)cc(OCCO)c21` [Example 3-1, 6-(3-chloro-2-fluorobenzyl)-8-(2-hydroxyethoxy)-1-((1S)-1-(hydroxymethyl)-2-methylpropyl)-4-oxo-1,4-dihydroquinoline-3-carboxylic acid], the IC50 worked out at 5.1 nM.

As for `CC(C)[C@@H](CO)n1cc(C(=O)O)c(=O)c2cc(Cc3cccc(Cl)c3F)cc(OCCCO)c21` [Example 3-2, 6-(3-chloro-2-fluorobenzyl)-1-((1S)-1-(hydroxymethyl)-2-methylpropyl)-8-(3-hydroxypropoxy)-4-oxo-1,4-dihydroquinoline-3-carboxylic acid], the IC50 was 4.7 nM.

On to `CC(C)[C@@H](CO)n1cc(C(=O)O)c(=O)c2cc(Cc3cccc(Cl)c3F)cc(OCCCCO)c21` [Example 3-3, 6-(3-chloro-2-fluorobenzyl)-8-(4-hydroxybutoxy)-1-((1S)-1-(hydroxymethyl)-2-methylpropyl)-4-oxo-1,4-dihydroquinoline-3-carboxylic acid], for which the IC50 was 6.3 nM.

Turning to `COCCOc1cc(Cc2cccc(Cl)c2F)cc2c(=O)c(C(=O)O)cn([C@H](CO)C(C)C)c12` [Example 3-4, 6-(3-chloro-2-fluorobenzyl)-1-((1S)-1-(hydroxymethyl)-2-methylpropyl)-8-(2-methoxyethoxy)-4-oxo-1,4-dihydroquinoline-3-carboxylic acid], the IC50 is 4.5 nM.

As for `CC(C)[C@@H](CO)n1cc(C(=O)O)c(=O)c2cc(Cc3cccc(Cl)c3F)cc(O)c21` [Example 3-5, 6-(3-chloro-2-fluorobenzyl)-8-hydroxy-1-((1S)-1-(hydroxymethyl)-2-methylpropyl)-4-oxo-1,4-dihydroquinoline-3-carboxylic acid], the IC50 worked out at 4 nM.

For the molecule `CC(C)[C@@H](CO)n1cc(C(=O)O)c(=O)c2cc(Cc3cccc(Cl)c3F)cc(OCCN(C)C)c21` [Example 3-6, 6-(3-chloro-2-fluorobenzyl)-8-(2-(dimethylamino)ethoxy)-1-((1S)-1-(hydroxymethyl)-2-methylpropyl)-4-oxo-1,4-dihydroquinoline-3-carboxylic acid], the IC50 came out at 11 nM.

Take `COCCCOc1cc(Cc2cccc(Cl)c2F)cc2c(=O)c(C(=O)O)cn([C@H](CO)C(C)C)c12` [Example 3-7, 6-(3-chloro-2-fluorobenzyl)-1-((1S)-1-(hydroxymethyl)-2-methylpropyl)-8-(3-methoxypropoxy)-4-oxo-1,4-dihydroquinoline-3-carboxylic acid]: the IC50 was determined as 4.7 nM.

In the case of `COCCCCOc1cc(Cc2cccc(Cl)c2F)cc2c(=O)c(C(=O)O)cn([C@H](CO)C(C)C)c12` [Example 3-8, 6-(3-chloro-2-fluorobenzyl)-1-((1S)-1-(hydroxymethyl)-2-methylpropyl)-8-(4-methoxybutoxy)-4-oxo-1,4-dihydroquinoline-3-carboxylic acid], the IC50 turned out to be 4 nM.

As for `CC(C)[C@@H](CO)n1cc(C(=O)O)c(=O)c2cc(Cc3cccc(Cl)c3F)cc(OCc3ccccc3)c21` [Example 3-9, 8-benzyloxy-6-(3-chloro-2-fluorobenzyl)-1-((1S)-1-(hydroxymethyl)-2-methylpropyl)-4-oxo-1,4-dihydroquinoline-3-carboxylic acid], the IC50 is 5 nM.

`COCCOc1cc2c(cc1Cc1cccc(Cl)c1F)c(=O)c(C(=O)O)cn2[C@H](CO)C(C)C` [Example 4-1, 6-(3-chloro-2-fluorobenzyl)-1-((1S)-1-(hydroxymethyl)-2-methylpropyl)-7-(2-methoxyethoxy)-4-oxo-1,4-dihydroquinoline-3-carboxylic acid]: the IC50 turned out to be 4.4 nM.

`CC(C)[C@@H](CO)n1cc(C(=O)O)c(=O)c2cc(Cc3cccc(Cl)c3F)c(OCCN(C)C)cc21` [Example 4-2, 6-(3-chloro-2-fluorobenzyl)-7-(2-(dimethylamino)ethoxy)-1-((1S)-1-(hydroxymethyl)-2-methylpropyl)-4-oxo-1,4-dihydroquinoline-3-carboxylic acid]: the IC50 is 6 nM.

On to `CNS(=O)(=O)COc1cc2c(cc1Cc1cccc(Cl)c1F)c(=O)c(C(=O)O)cn2[C@H](CO)C(C)C` [Example 4-3, 6-(3-chloro-2-fluorobenzyl)-1-((1S)-1-(hydroxymethyl)-2-methylpropyl)-7-((methylamino)sulfonylmethoxy)-4-oxo-1,4-dihydroquinoline-3-carboxylic acid], for which the IC50 was found to be 4.7 nM.

As to `CCc1cc2c(cc1Cc1cccc(Cl)c1F)c(=O)c(C(=O)O)cn2[C@H](CO)C(C)C` [Example 4-4, 6-(3-chloro-2-fluorobenzyl)-7-ethyl-1-((1S)-1-(hydroxymethyl)-2-methylpropyl)-4-oxo-1,4-dihydroquinoline-3-carboxylic acid], the IC50 worked out at 4.7 nM.

With `CC(C)[C@@H](CO)n1cc(C(=O)O)c(=O)c2cc(Cc3cccc(Cl)c3F)c(OCCCCO)cc21` [Example 4-5, 6-(3-chloro-2-fluorobenzyl)-7-(4-hydroxybutoxy)-1-((1S)-1-(hydroxymethyl)-2-methylpropyl)-4-oxo-1,4-dihydroquinoline-3-carboxylic acid], the IC50 came to 3.4 nM.
